US12421254B2, “KRAS modulators and uses thereof” (Quanta Therapeutics, Inc., priority 2023, dated 2025)

What was measured:
[1] = system: phospho-ERK in SW620 (KRAS-G12V) cells; test: pERK In Cell Western (ICW) assay (Method B), SW620; assay type: cell-based; conditions: Homo sapiens, SW-620, 3 h, Table 4
Method in brief: (§1)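 Read-out is In-Cell Western phospho-ERK signal divided by DRAQ5 per well, as percent of blank control, fitted with a 4-parameter variable-slope model for IC50. Compounds were dosed as 9-point half-log series for 3 h at 37°C on AGS, GP2D (G12D) or SW620 (G12V) cells plated the day before.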

KRAS G12D/RAF1 = target: T1, KRAS G12D/RAF1 (Homo sapiens, UniProt P01116, G12D); test: Protein-protein interaction (PPI) HTRF assay KRAS G12D/RAF1; assay type: binding; conditions: Table 2
T1 construct: KRAS (1-169) proteins were expressed in BL21 (DE3)-CodonPlus E. coli; His6-MBP (N, cleaved yes)

[2] = system: phospho-ERK in GP2D (KRAS-G12D) cells; test: pERK In Cell Western (ICW) assay (Method B), GP2D; assay type: cell-based; conditions: GP2d, 3 h, Table 4
Method in brief: as §1

phospho-ERK in AGS cells = test: pERK In Cell Western (ICW) assay (Method B), AGS; assay type: cell-based; conditions: Homo sapiens, Table 2, 3 hours
Method in brief: as §1

NRAS/RAF1 = target: T2, NRAS/RAF1 (Homo sapiens, UniProt P01111); test: Protein-protein interaction (PPI) HTRF assay w.t. NRAS/RAF1; assay type: binding; conditions: Table 3; wt NRAS/RAF1
T2 construct: (1-169); His6-SUMO (N, cleaved yes)
Description: When RAS proteins are in the active GTP-bound conformation, they bind the effector protein RAF1 at the N-terminus Ras-binding domain (RBD, residues 52-131) (Tran, et al., 2021). Homogenous time resolved fluorescence (HTRF) was used to monitor the interaction between wt or mutant KRAS and RAF1 or wt NRAS and RAF1. Compounds were assayed in the presence of KRAS G12D/V and RAF1 versus wt KRAS to assess activity against mutant and w.t. KRAS. Similarly, compounds were then assayed in the presence of w.t. NRAS and RAF1 to assess RAS isoform selectivity. In all assay formats, His-tagged RAF1 protein was incubated with the HTRF donor, anti-6His Tb Cryptate gold (Cisbio 61DB10RDF), and biotinylated RAS proteins were incubated with the HTRF acceptor, streptavidin-d2 (CisBio 610SADLA). The intensity of the fluorescence signal emitted is proportional to binding between the two proteins. The donor solution was prepared by mixing 16 nM His-tagged RAF1 in protein dilution buffer with 1:100 anti-6His Tb cryptate in PPI-Terbium detection buffer. 16 nM biotinylated RAS protein was diluted into protein dilution buffer (50 mM Tris-HCl pH 7.5, 150 mM NaCl, 0.1 mM MgCl2, 1 mM TCEP, 0.005% Tween20) and mixed with 1:2000 Streptavidin-d2 diluted in PPI-Terbium detection buffer (CisBio 61DB10RDF). 50× compound in DMSO was mixed with 16 nM KRAS-acceptor solution and incubated for 30 minutes at room temperature. After compound pre-incubation with KRAS, the RAF1 donor solution was added to the KRAS-acceptor solution and incubated for 1 hour at room temperature. The fluorescence signal emitted was monitored at 665 nm and 615 nm using an Envision multimode plate reader. The HTRF ratio (665/615) was calculated and normalized to 0% inhibition in the absence of compound and 100% inhibition in the presence of untagged RAF1 protein. PPI KRAS G12D/RAF1, KRAS G12V/RAF1, w.t. KRAS/RAF1 and NRAS/RAF1 IC50 (uM) values of selected compounds are depicted in Table 3 and Table 4 with compounds having a value <0.1 uM as ++++; ≥0.1 uM to 1 uM as +++; ≥1 uM to 10 uM as ++; ≥10 uM to 100 uM as +; and ≥100 uM as NA.

T1 sequence (P01116 with tags, fused parts or gaps isoform P01116-2 G12D): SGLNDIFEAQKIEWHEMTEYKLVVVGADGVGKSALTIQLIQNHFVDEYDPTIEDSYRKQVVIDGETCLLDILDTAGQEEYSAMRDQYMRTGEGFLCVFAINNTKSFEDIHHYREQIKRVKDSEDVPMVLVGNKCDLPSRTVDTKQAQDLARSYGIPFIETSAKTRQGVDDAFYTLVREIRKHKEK
T2 sequence (P01111 with tags, fused parts or gaps): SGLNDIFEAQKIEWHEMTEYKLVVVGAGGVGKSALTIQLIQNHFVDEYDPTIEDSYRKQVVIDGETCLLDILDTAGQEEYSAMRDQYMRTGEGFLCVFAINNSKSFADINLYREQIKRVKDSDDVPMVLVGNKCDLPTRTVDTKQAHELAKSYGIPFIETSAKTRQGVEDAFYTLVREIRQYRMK

SMILES | IC50 [1] [nM] | IC50 (KRAS G12D/RAF1) [µM] | IC50 [2] [nM] | IC50 (phospho-ERK in AGS cells) [µM] | IC50 (NRAS/RAF1) [µM]
N#Cc1c(N)sc2c1C1(CC2)CN(c2nc(OC[C@@]34CCCN3C[C@H](F)C4)nc(N3CCCC(C#N)C3)n2)C1 (stereo partly drawn) [Compound 13, 2-amino-1′-[4-(3-cyano-1-piperidyl)-6-[[(2R,8S)-2-fluoro-1,2,3,5,6,7-hexahydropyrrolizin-8-yl]methoxy]-1,3,5-triazin-2-yl]spiro[5,6-dihydrocyclopenta[b]thiophene-4,3′-azetidine]-3-carbonitrile] | 100 to 1000 | 1 to 10 | 100 to 1000 | 1 to 10 | 
C[C@@]1(O)CCCN(c2nc(OC[C@@]34CCCN3C[C@H](F)C4)nc(N3CC4(CCc5sc(N)c(C#N)c54)C3)n2)C1 [Compound 10, 2-amino-1′-[4-[[(2R,8S)-2-fluoro-1,2,3,5,6,7-hexahydropyrrolizin-8-yl]methoxy]-6-[(3R)-3-hydroxy-3-methyl-1-piperidyl]-1,3,5-triazin-2-yl]spiro[5,6-dihydrocyclopenta[b]thiophene-4,3′-azetidine]-3-carbonitrile] | 100 to 1000 | 1 to 10 | 10 to 100 | 0.1 to 1 | > 100
N#Cc1c(N)sc2c1C1(CC2)CN(c2nc(OCC3(CN4CCOCC4)CC3)nc(N3CCCC4(C3)NC(=O)NC4=O)n2)C1 (stereo not shown) [Compound 7, 2-amino-1′-[4-(2,4-dioxo-1,3,9-triazaspiro[4.5]decan-9-yl)-6-[[1-(morpholinomethyl)cyclopropyl]methoxy]-1,3,5-triazin-2-yl]spiro[5,6-dihydrocyclopenta[b]thiophene-4,3′-azetidine]-3-carbonitrile] | 1000 to 20000 | 0.1 to 1 | 1000 to 20000 |  | > 100
N#Cc1c(N)sc2c1C1(CCC2)CN(c2nc(OCC3(CN4CCOCC4)CC3)nc(N3C[C@H]4CC[C@@H](C3)N4)n2)C1 [Compound 3, 2-amino-1′-[4-[(1R,5S)-3,8-diazabicyclo[3.2.1]octan-3-yl]-6-[[1-(morpholinomethyl)cyclopropyl]methoxy]-1,3,5-triazin-2-yl]spiro[6,7-dihydro-5H-benzothiophene-4,3′-azetidine]-3-carbonitrile] |  | 1 to 10 | 10 to 100 | 0.1 to 1 | > 100
N#Cc1c(N)sc2c1C1(CC2)CN(c2nc(OCC34CCCN3CC(F)C4)nc(N3CC4CCC(C3)N4)n2)C1 [Compound 1, 2-amino-1′-[4-(3,8-diazabicyclo[3.2.1]octan-3-yl)-6-[[(2R,8S)-2-fluoro-1,2,3,5,6,7-hexahydropyrrolizin-8-yl]methoxy]-1,3,5-triazin-2-yl]spiro[5,6-dihydrocyclopenta[b]thiophene-4,3′-azetidine]-3-carbonitrile] |  | 0.1 to 1 | 10 to 100 | 0.1 to 1 | > 100
N#Cc1c(N)sc2c1C1(CC2)CN(c2nc(OCC3(CN4CCOCC4)CC3)nc(N3C[C@H]4CC[C@@H](C3)N4)n2)C1 [Compound 2, 2-amino-1′-[4-[[1-(morpholinomethyl)cyclopropyl]methoxy]-6-[(1R,5S)-3,8-diazabicyclo[3.2.1]octan-3-yl]-1,3,5-triazin-2-yl]spiro[5,6-dihydrocyclopenta[b]thiophene-4,3′-azetidine]-3-carbonitrile] |  | 1 to 10 | 10 to 100 | 0.1 to 1 | > 100
